Experimental findings from publication PMC2725291, “Genetic and Molecular Basis of Individual Differences in Human Umami Taste Perception” (PLoS ONE, 2009) are described below.

Where a name gives a salt, the structure may show the parent alone.

Experiment [1] deals with T1, TAS1R1-372A and TAS1R3-757R (Homo sapiens, UniProt Q7RTX0+Q7RTX1, C757R).
T1 construct: expressed in transfected cells; host or cells: HEK293
T1 sequence (Q7RTX1 21-841): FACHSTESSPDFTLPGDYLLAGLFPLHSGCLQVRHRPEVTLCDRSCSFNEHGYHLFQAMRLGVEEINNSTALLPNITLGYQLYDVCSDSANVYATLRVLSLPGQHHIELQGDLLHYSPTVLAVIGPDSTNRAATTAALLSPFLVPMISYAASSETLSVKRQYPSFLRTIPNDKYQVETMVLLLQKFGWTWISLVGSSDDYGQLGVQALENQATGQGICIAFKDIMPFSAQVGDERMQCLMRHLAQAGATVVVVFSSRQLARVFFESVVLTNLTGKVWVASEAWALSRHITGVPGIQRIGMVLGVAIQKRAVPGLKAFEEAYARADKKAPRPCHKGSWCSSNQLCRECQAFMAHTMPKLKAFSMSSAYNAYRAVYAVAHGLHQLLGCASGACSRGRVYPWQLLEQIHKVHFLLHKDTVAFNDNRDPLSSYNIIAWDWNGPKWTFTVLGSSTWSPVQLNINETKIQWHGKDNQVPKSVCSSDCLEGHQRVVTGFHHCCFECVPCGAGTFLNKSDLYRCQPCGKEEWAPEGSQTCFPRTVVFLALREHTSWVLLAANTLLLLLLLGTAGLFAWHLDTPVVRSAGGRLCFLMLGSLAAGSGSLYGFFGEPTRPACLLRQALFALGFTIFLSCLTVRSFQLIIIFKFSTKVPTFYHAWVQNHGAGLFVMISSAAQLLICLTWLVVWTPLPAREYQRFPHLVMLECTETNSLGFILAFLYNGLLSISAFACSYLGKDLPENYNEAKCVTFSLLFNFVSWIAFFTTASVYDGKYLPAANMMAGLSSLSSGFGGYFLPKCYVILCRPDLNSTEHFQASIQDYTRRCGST
T1 sequence (Q7RTX0 21-852 C757R): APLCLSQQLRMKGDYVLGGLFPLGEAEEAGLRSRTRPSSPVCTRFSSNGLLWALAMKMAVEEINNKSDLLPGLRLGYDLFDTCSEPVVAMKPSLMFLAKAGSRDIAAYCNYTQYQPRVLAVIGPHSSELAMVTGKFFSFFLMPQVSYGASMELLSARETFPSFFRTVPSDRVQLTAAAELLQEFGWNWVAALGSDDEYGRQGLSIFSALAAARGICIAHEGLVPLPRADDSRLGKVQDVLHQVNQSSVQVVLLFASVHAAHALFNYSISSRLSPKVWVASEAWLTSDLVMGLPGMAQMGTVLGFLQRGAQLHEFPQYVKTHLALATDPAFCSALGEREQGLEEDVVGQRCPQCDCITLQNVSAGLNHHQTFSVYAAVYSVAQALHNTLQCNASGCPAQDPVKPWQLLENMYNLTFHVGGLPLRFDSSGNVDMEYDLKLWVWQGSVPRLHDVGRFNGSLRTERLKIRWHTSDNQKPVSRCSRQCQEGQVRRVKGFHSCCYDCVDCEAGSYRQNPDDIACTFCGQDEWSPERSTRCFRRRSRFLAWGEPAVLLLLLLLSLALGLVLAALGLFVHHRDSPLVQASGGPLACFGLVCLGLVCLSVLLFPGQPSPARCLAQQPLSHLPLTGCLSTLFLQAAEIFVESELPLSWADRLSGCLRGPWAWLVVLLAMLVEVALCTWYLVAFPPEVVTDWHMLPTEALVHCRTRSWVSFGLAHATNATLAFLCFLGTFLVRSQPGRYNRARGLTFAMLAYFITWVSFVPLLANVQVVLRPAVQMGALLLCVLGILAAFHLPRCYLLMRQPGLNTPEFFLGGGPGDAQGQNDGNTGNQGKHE
In words: Ca2+ imaging (bath perfusion) in HEK cells transfected with TAS1R1-372A, TAS1R3-757R and Gα16-i3. The experiment is classed as cell-based. The procedure:
HEK293 cells were cultured at 37°C under a humidified atmosphere containing 5% CO2 in Dulbecco's modified Eagle's medium supplemented with 10% fetal bovine serum. To obtain reproducible Ca^2+ responses, cells were split every 2 days before cells become confluent. Cells were discarded after 2 months of passages and new cells were prepared from frozen-stock. For calcium imaging experiments, cells were seeded onto a 35 mm recording chamber or poly-D-lysine coated 96-well black-wall, clear-bottom recording plates. After 24 hrs at 37°C, confluent cells (60∼70%) were washed in OptiMEM medium supplemented with GlutaMAX-I (invitrogen) and plasmid DNAs were transiently cotransfected into HEK293 cells using Lipofectamine2000 regent (invitrogen) (2.0 µl per 1.0 µg DNA). TAS1Rs (or their mutants) and Gαl6-i3 were transfected using 1.5 and 1.0 µg of plasmid for 35 mm recording chambers, 0.09 and 0.06 µg of plasmid per well for 96-well plates, respectively. […] Immuno staining and Ca^2+ imaging assays were performed 36∼40 hrs after transfection.
Two Ca^2+ imaging systems were used. A bath perfusion system was used for kinetics of activation. Transfected cells in 35 mm recording chambers were washed in Hank's balanced salt solution (HBSS) containing 10 mM HEPES, pH 7.4, and loaded with 3.0 µM Fluo-4 acetoxymethyl ester (invitrogen) for 1.0 hr at 37°C. The dye-loaded cells were subjected to Ca^2+ imaging. Taste solutions diluted in HBSS were applied sequentially to the cells for 30 s with a peristaltic pump at a flow rate of 1.5 ml/min, and fluorescence images were obtained using a S Fluor ×20/0.75 objective lens (Nikon) via a cooled-CCD camera (C6790, Hamamatsu Photonics) fitted to a TE300 microscope (Nikon). Acquisition and analysis of these fluorescence images used AquaCosmos software (v. 1.3, Hamamatsu Photonics). A 3 min interval was left between each tastant application to ensure that the cells were not desensitized as a result of the previous application of tastants. Responses were measured from 30 individual responding cells. […] Isoproterenol (ISO, 10 µM) was used as positive control, which stimulates endogenous β-adrenergic receptors, providing that the Gα16-dependent signal transduction cascade was functional.

Another experiment relates to 254 Japanese subjects. The experiment in a line: Taste recognition threshold measurement (staircase method). The experiment is classed as in vivo, human. Particulars: other basic taste stimuli, Figure S1. The text has this:
A total of 254 healthy, non-obese, non-diabetic Japanese volunteers [male/female: 141/113, age: 20–36, body mass index (BMI); 16.5–24.8] participated in this study. The purpose of the study as well as the methods and procedure were explained to the participants and the patients in this manuscript have given written informed consent. All protocols were approved by the local ethics committee at Kyushu University. Subjects were asked to refrain from consuming alcohol the day before testing, caffeine on the day of testing, and food during the experimentation period. The inclusion criteria were satisfactory state of oral hygiene, non-smoking, regular work, sleep, and meal schedules.
As MSG contains sodium, great care was taken to compare individual sensitivities to MSG relative to NaCl. […] The differences in concentrations in the present study were in 0.3 log steps, which mean step-wise increases in concentration by a factor of 2.0. All solutions were made up in distilled water and used at room temperature. The testing procedure was the staircase-method modified from Pasquet et al.. Each subject evaluated all 7 tastants. The seven series of solutions were presented one after another within a single section. Within each series, the solutions with each 2.0 ml were applied to the whole tongue of each subject with a pipet in order of ascending concentrations. The subjects were asked not to swallow test solutions and rinse their mouth between two solutions with distilled water. The subject was requested to correctly name the taste quality in each series. Once the taste of two successive concentrations was recognized successfully, the subject was given the previous unrecognized concentration (first reversal). The points at which concentration sequence changed from a decrease to an increase or vice versa were designated “reversals”. The procedure was terminated after five reversals, and the threshold was calculated as the mean of the concentration values of the last four reversals.
Student's t-test was used for detection of differences in the mean recognition thresholds between males and females. The χ^2 test was used for checking Hardy-Weinberg Equilibrium (HWE) for the genotype frequencies in samples to control genotyping errors, for detection of differences in genotype and allele frequencies between high and low taste recognition threshold groups. Yates'χ^2 test was used when the number was less than 10. The mean values (the center±S.E. of gaussian curve on X-axis) in the distribution of recognition thresholds defined by TAS1R1/TAS1R3 haplotypes (TAS1R1-372A/TAS1R3-757R homozygotes, TAS1R1-372T/TAS1R3-757R homozygotes, homo- and heterozygotes containing TAS1R3-757C) were calculated using gauss fit function of Origin 5.0 (OriginLab Corp). For Ca^2+ imaging analysis, data were normalized to response to 10 µM ISO, and mean values (±S.E.) were calculated from 10∼18 independent analyses. EC50 values were calculated from individual cumulative concentration-response data using sigmoid fit functions of Origin 5.0. One factor ANOVAs were conducted for detection of differences in the distributions of recognition thresholds for umami substances among 3 groups defined by TAS1R1/TAS1R3 haplotypes, and in the responses to 5, 20 and 50 mM MSG or 0.3, 5 and 50 mM M+I among TAS1R1/TAS1R3 variants in Ca^2+ imaging analysis. When the ANOVA was significant, post-hoc Student's t-test or Fisher's PLSD test was performed to compare individual means at each umami compound or concentration. Significance level was 0.05.

Another experiment relates to TAS1R1/TAS1R3 variants. The experiment in a line: Ca2+ imaging (FlexStation II), comparison across receptor variants (AR, TR, AC, TC). In kind it is cell-based, human. Particulars: lactisole 5 mM; 20 mM MSG+0.5 mM IMP; Figure S5. The text has this: Intronless human TAS1Rs and Gαl6 expression constructs were generated in the pEF-DEST51 Gateway vector (Invitrogen) by genomic DNA-based methods. To subclone each gene into the vector, a Kozak cassette was introduced at the 5′ end before the start codon. Gαl6 chimeras were generated by PCR with mutagenic primers. The carboxyl-terminal tail of Gαl6, five-residue (EINLL) was replaced by its counterpart from Gαi3 (ECGLY; Gα16-i3), Gαgust (DCGLF; Gα16-gust), and Gα16-gust44 was generated as described. The integrity of all DNA constructs was confirmed by DNA sequencing. Point mutations in TAS1Rs were made using the same overlapping PCR strategy with mutagenic primers.
HEK293 cells were cultured at 37°C under a humidified atmosphere containing 5% CO2 in Dulbecco's modified Eagle's medium supplemented with 10% fetal bovine serum. To obtain reproducible Ca^2+ responses, cells were split every 2 days before cells become confluent. Cells were discarded after 2 months of passages and new cells were prepared from frozen-stock. For calcium imaging experiments, cells were seeded onto a 35 mm recording chamber or poly-D-lysine coated 96-well black-wall, clear-bottom recording plates. After 24 hrs at 37°C, confluent cells (60∼70%) were washed in OptiMEM medium supplemented with GlutaMAX-I (invitrogen) and plasmid DNAs were transiently cotransfected into HEK293 cells using Lipofectamine2000 regent (invitrogen) (2.0 µl per 1.0 µg DNA). […]
Student's t-test was used for detection of differences in the mean recognition thresholds between males and females. […] The mean values (the center±S.E. of gaussian curve on X-axis) in the distribution of recognition thresholds defined by TAS1R1/TAS1R3 haplotypes (TAS1R1-372A/TAS1R3-757R homozygotes, TAS1R1-372T/TAS1R3-757R homozygotes, homo- and heterozygotes containing TAS1R3-757C) were calculated using gauss fit function of Origin 5.0 (OriginLab Corp). For Ca^2+ imaging analysis, data were normalized to response to 10 µM ISO, and mean values (±S.E.) were calculated from 10∼18 independent analyses.

Regarding `[Cl-].[Na+]` [NaCl], the “Ca2+ response of transfected HEK cells” value in experiment [1] (50 mM) is recorded as “did not respond”. In the experiment with 254 Japanese subjects, the “differences in distributions of recognition thresholds among TR, AR and TAS1R3-757C groups” value (shortened to “differences in distributions”) is recorded as “no such differences”. Turning to `OC[C@H]1OC(O)[C@H](O)[C@@H](O)[C@@H]1O` (stereo partly shown) [glucose], the “Ca2+ response of transfected HEK cells” value in experiment [1] (50 mM) is reported as “did not respond”.

`NC(=S)Nc1ccccc1` [PTC, phenylthiocarbamide]: the “differences in distributions” value in the experiment on 254 Japanese subjects was “no such differences”. For `O=C1NS(=O)(=O)c2ccccc21` [saccharin], the “Ca2+ response of transfected HEK cells” value in experiment [1] (1 mM (data not shown)) is listed as “did not respond”. As to `C[C@H](NC(=NCC(=O)O)Nc1ccc(C#N)cc1)c1ccccc1` [SC45647], the “Ca2+ response of transfected HEK cells” value in experiment [1] (0.3 mM (data not shown)) is recorded as “did not respond”. On to `Cl` [HCl], for which the “differences in distributions” value in the experiment on 254 Japanese subjects is listed as “no such differences”. With `COc1ccc(OC(C)C(=O)O)cc1` (stereo not shown) [lactisole], the “inhibition effect on the responses of TAS1R1/TAS1R3 variants” value in the experiment with TAS1R1/TAS1R3 variants is listed as “clearly observed”.

As for `OC[C@H]1O[C@@](CO)(O[C@H]2O[C@H](CO)[C@@H](O)[C@H](O)[C@H]2O)[C@@H](O)[C@@H]1O` [sucrose], the “Ca2+ response of transfected HEK cells” value in experiment [1] (50 mM) is on record as “did not respond”. The “differences in distributions” value in the experiment on 254 Japanese subjects was “no such differences”.
